Assay results published in PubChem BioAssay AID2060889 (Molecular Pharmacology Branch, DTP, NCI, 2025).
Blank lines part the entries; values can stand above or below the compound they belong to.

Tested on: LG0567-F671-PDC complex spheroids viability
Experiment: Anticancer human tumor LG0567-F671-PDC patient-derived lung adenocarcinoma cell line growth inhibition [RAS]
Details: for IC50: curve of first compound; for viability, T/C: stronger effect = lower value
From the text: RAS pathway inhibitors in Combinations in Complex Spheroids
A high-throughput screen of multi-cell type tumor spheroids was designed to identify active combinations of RAS pathway inhibitors and targeted small molecules. Complex spheroids include a stromal component modeled by human endothelial cells (HUVEC) and fibroblasts modeled by human mesenchymal stem cells (MSCs). The concentration ranges selected for each drug and investigational agent were based upon clinically achievable concentrations if the clinical Cmax of the agent was known.
Compounds. The drugs and investigational agents: abemaciclib (NSC768073), cobimetinib (NSC768068), divarasib (GDC6063, NSC841802), docetaxel (NSC628503), GDC-1971 (RLY-1971, NSC841576), gemcitabine (NSC613327), inavolisib (NSC800729), ipatasertib (NSC767898), KB-0742 (NSC834161), MRTX-1133 (NSC836407), osimertinib (NSC779217), RMC-4630 (NSC839698), RMC-6236 (NSC851965), RMC-6291 (NSC852671), Ro-3306 (NSC812927), sapanisertib (NSC764658), SN-38 (NSC673596), staurosporine (NSC755774), SY5609 (NSC837396), and tovorafenib (DAY101, NSC766906), were obtained from the National Cancer Institute (NCI) Developmental Therapeutics Program Chemical Repository. The FDA-approved anticancer drug set is available from the NCI Developmental Therapeutics Program. […] The stock solutions were prepared in dimethyl sulfoxide (DMSO, Sigma-Aldrich, St. Louis, MO, cat. D2650) at 800-fold the tested concentration and stored at -70 degrees C prior to their use. All drugs and investigational agents were tested over a range starting from a high concentration at or near the clinical Cmax and decreasing in half-log increments. If the clinical Cmax for an agent had not been determined, the highest concentration tested was 10 microM.
Cell Culture. All cells were maintained in an incubator at 37 degrees C and 5% CO2 with 95% humidity. The PDC lines were cultured according to standard operating procedures established by the NCI PDMR. All PDCs were thawed and cultured in Matrigel-coated flasks prepared with a working solution of 1X Ham's F-12 nutrient mix, without supplementation (Invitrogen, Waltham, MA, cat. 11765054), 100 U/mL penicillin-streptomycin (Invitrogen, cat. 15140122), and 2.5% Matrigel (Corning Inc., Corning, NY, cat. 354248) for the first three passages. The 362531-283-R-J2-PDC and 782815-120-R-J1-PDC lines were cultured in 6C/Colon 1B media, which includes advanced DMEM/F-12 (Thermo Fisher Scientific, cat. 12634028), 10 mM HEPES (Thermo Fisher Scientific, cat. 15630080), 1X GlutaMAX supplement (Thermo Fisher Scientific, cat. 35050061), 0.1 mg/mL primocin (InvivoGen, San Diego, CA, cat. ant-pm-2), 10% defined fetal bovine serum, heat inactivated (HyClone Laboratories Inc., Logan, UT, cat. SH30070.03HI), 50% L-WRN conditioned media (ATCC, cat. CRL-3276), 1.25 mM N-Acetyl-L-cysteine (Sigma-Aldrich, cat. A9165), 10 mM nicotinamide (Sigma-Aldrich, cat. N0636), 1X B-27 supplement (Thermo Fisher Scientific, cat. 17504044), 1X N-2 supplement (Thermo Fisher Scientific, cat. 17502048), 50 ng/mL human EGF (Thermo Fisher Scientific, cat. PHG0311), and 10 microM Y-27632 dihydrochloride (Tocris Bioscience, cat. 1254). The K12877-001-R-J1-PDC line was cultured in 6I media, which includes all 6C/Colon 1B media plus 10 ng/mL human FGF-10 (PeproTech, cat. 100-26), 1 ng/mL human FGF-2 (PeproTech, cat. 100-18B), 1 µM prostaglandin E2 (Tocris Bioscience, cat. 2296), […] hydrocortisone (Sigma-Aldrich, cat. H4001), and […] bovine insulin (Sigma-Aldrich, cat. I6634). The K86415-001-R-J1-PDC line was cultured in 6D media, which includes all 6C/Colon 1B media components minus the L-WRN conditioned media. The 485176-168-R4-J1-PDC was cultured in PANC media, which includes all 6C/Colon 1B media plus 100 ng/mL human FGF-10 (PeproTech, cat. 100-26), 500 nM SB-431542 (Selleckchem, cat. S1067), and 10 nM gastrin (Tocris Bioscience, cat. 3006). […]
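Further: spheroids exposed to compound for seven days before readout.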
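Wherever IC50 is given: luminescence signal used as a proxy for viable cells.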

IC50 (second compound 0.00316 µM): < 31.6 nM | IC50 (second compound 0.01 µM): < 31.6 nM | IC50 (second compound 0.0316 µM): < 31.6 nM | IC50 (second compound 0.1 µM): < 31.6 nM | IC50 (second compound 0.316 µM): < 31.6 nM | IC50 (second compound 1 µM): < 31.6 nM
Compound: Cc1nc(N2CCC3(CC2)COC(C)C3N)c(CO)nc1Sc1ccnc(N)c1Cl (centres undefined) + C=CC(=O)N1CCN(c2nc(OCC3CCCN3C)nc3c(F)c(-c4nc(N)cc(C)c4C(F)(F)F)c(Cl)cc23)C(C)C1
viability, T/C (second compound 0.00316 µM, first compound 0.0316 µM): 12.4% | viability, T/C (second compound 0.00316 µM, first compound 0.1 µM): 7.94% | viability, T/C (second compound 0.00316 µM, first compound 0.316 µM): 5.15% | viability, T/C (second compound 0.00316 µM, first compound 1 µM): 4.23% | viability, T/C (second compound 0.00316 µM, first compound 3.16 µM): 3.11% | viability, T/C (second compound 0.00316 µM, first compound 10 µM): 3.36% | viability, T/C (second compound 0.01 µM, first compound 0.0316 µM): 10.9% | viability, T/C (second compound 0.01 µM, first compound 0.1 µM): 6.73% | viability, T/C (second compound 0.01 µM, first compound 0.316 µM): 5.04% | viability, T/C (second compound 0.01 µM, first compound 1 µM): 3.41% | viability, T/C (second compound 0.01 µM, first compound 3.16 µM): 3.13% | viability, T/C (second compound 0.01 µM, first compound 10 µM): 2.84% | viability, T/C (second compound 0.0316 µM, first compound 0.0316 µM): 9.73% | viability, T/C (second compound 0.0316 µM, first compound 0.1 µM): 7.78% | viability, T/C (second compound 0.0316 µM, first compound 0.316 µM): 4.91% | viability, T/C (second compound 0.0316 µM, first compound 1 µM): 3.38% | viability, T/C (second compound 0.0316 µM, first compound 3.16 µM): 3.09% | viability, T/C (second compound 0.0316 µM, first compound 10 µM): 2.69% | viability, T/C (second compound 0.1 µM, first compound 0.0316 µM): 9.46% | viability, T/C (second compound 0.1 µM, first compound 0.1 µM): 8.29% | viability, T/C (second compound 0.1 µM, first compound 0.316 µM): 4.85% | viability, T/C (second compound 0.1 µM, first compound 1 µM): 3.44% | viability, T/C (second compound 0.1 µM, first compound 3.16 µM): 3.22% | viability, T/C (second compound 0.1 µM, first compound 10 µM): 2.91% | viability, T/C (second compound 0.316 µM, first compound 0.0316 µM): 10.3% | viability, T/C (second compound 0.316 µM, first compound 0.1 µM): 7.09% | viability, T/C (second compound 0.316 µM, first compound 0.316 µM): 5.95% | viability, T/C (second compound 0.316 µM, first compound 1 µM): 4.14% | viability, T/C (second compound 0.316 µM, first compound 3.16 µM): 3.2% | viability, T/C (second compound 0.316 µM, first compound 10 µM): 3.39% | viability, T/C (second compound 1 µM, first compound 0.0316 µM): 9.98% | viability, T/C (second compound 1 µM, first compound 0.1 µM): 8.28% | viability, T/C (second compound 1 µM, first compound 0.316 µM): 6.91% | viability, T/C (second compound 1 µM, first compound 1 µM): 4.16% | viability, T/C (second compound 1 µM, first compound 3.16 µM): 3.7% | viability, T/C (second compound 1 µM, first compound 10 µM): 4.07%

IC50 (second compound 0.000949 µM): < 31.6 nM | IC50 (second compound 0.003 µM): < 31.6 nM | IC50 (second compound 0.00949 µM): < 31.6 nM | IC50 (second compound 0.03 µM): < 31.6 nM | IC50 (second compound 0.0949 µM): < 31.6 nM | IC50 (second compound 0.3 µM): < 31.6 nM
Compound: CC(Nc1ccc2c(c1)OCCn1cc(N3C(=O)OCC3C(F)F)nc1-2)C(N)=O (centres undefined) + CCn1c(-c2cccnc2C(C)OC)c2c3cc(ccc31)N1CCOC(CC(NC(=O)C(C(C)C)N(C)C(=O)C3(F)CCN(C(=O)C#CC(C)(C)N(C)C)CC3)C(=O)N3CCCC(N3)C(=O)OCC(C)(C)C2)C1
viability, T/C (second compound 0.000949 µM, first compound 0.0316 µM): 10.7% | viability, T/C (second compound 0.000949 µM, first compound 0.1 µM): 8.72% | viability, T/C (second compound 0.000949 µM, first compound 0.316 µM): 8.3% | viability, T/C (second compound 0.000949 µM, first compound 1 µM): 7.21% | viability, T/C (second compound 0.000949 µM, first compound 3.16 µM): 5.43% | viability, T/C (second compound 0.000949 µM, first compound 10 µM): 4.31% | viability, T/C (second compound 0.003 µM, first compound 0.0316 µM): 9.17% | viability, T/C (second compound 0.003 µM, first compound 0.1 µM): 8.19% | viability, T/C (second compound 0.003 µM, first compound 0.316 µM): 7.67% | viability, T/C (second compound 0.003 µM, first compound 1 µM): 6.15% | viability, T/C (second compound 0.003 µM, first compound 3.16 µM): 6.22% | viability, T/C (second compound 0.003 µM, first compound 10 µM): 4.37% | viability, T/C (second compound 0.00949 µM, first compound 0.0316 µM): 9.41% | viability, T/C (second compound 0.00949 µM, first compound 0.1 µM): 8.93% | viability, T/C (second compound 0.00949 µM, first compound 0.316 µM): 9.05% | viability, T/C (second compound 0.00949 µM, first compound 1 µM): 6.09% | viability, T/C (second compound 0.00949 µM, first compound 3.16 µM): 5.36% | viability, T/C (second compound 0.00949 µM, first compound 10 µM): 4.24% | viability, T/C (second compound 0.03 µM, first compound 0.0316 µM): 8.43% | viability, T/C (second compound 0.03 µM, first compound 0.1 µM): 7.85% | viability, T/C (second compound 0.03 µM, first compound 0.316 µM): 6.83% | viability, T/C (second compound 0.03 µM, first compound 1 µM): 5.59% | viability, T/C (second compound 0.03 µM, first compound 3.16 µM): 4.63% | viability, T/C (second compound 0.03 µM, first compound 10 µM): 3.89% | viability, T/C (second compound 0.0949 µM, first compound 0.0316 µM): 7.47% | viability, T/C (second compound 0.0949 µM, first compound 0.1 µM): 6.11% | viability, T/C (second compound 0.0949 µM, first compound 0.316 µM): 5.42% | viability, T/C (second compound 0.0949 µM, first compound 1 µM): 4.93% | viability, T/C (second compound 0.0949 µM, first compound 3.16 µM): 3.8% | viability, T/C (second compound 0.0949 µM, first compound 10 µM): 2.62% | viability, T/C (second compound 0.3 µM, first compound 0.0316 µM): 7.06% | viability, T/C (second compound 0.3 µM, first compound 0.1 µM): 4.74% | viability, T/C (second compound 0.3 µM, first compound 0.316 µM): 5.86% | viability, T/C (second compound 0.3 µM, first compound 1 µM): 3.71% | viability, T/C (second compound 0.3 µM, first compound 3.16 µM): 2.8% | viability, T/C (second compound 0.3 µM, first compound 10 µM): 1.69%
